Molecules are shown by their SMILES.

EC50 data for 71 compounds are collected here from patent US10233195B2, “Anti-fibrotic pyridinones” (InterMune, Inc., priority 2014, dated 2019).

For this experiment, the system named is TGF-b induced Endothelin-1 production. Briefly: ET-1 assay: inhibitory effect on TGF-b induced endothelin-1 production. It counts as cell-based. The note with it: Homo sapiens, Fibroblast; fibroblasts, stimulant (TGFb, serum, LPA etc), ET-1 in media by ELISA, 4-parameter fit. The procedure:
Assay of Inhibitory Effect on TGF-b Induced Endothelin-1 Production
Fibroblasts (primary human lung and dermal, HFL-1, 3T3 etc) are seeded in 96-well plates at ˜15000 cells/well and serum starved for 0-48 hours. After media exchange, compounds serially diluted in DMSO are added to the cells. After a brief incubation of ˜30 min, stimulants (TGFb, serum, LPA etc) are added followed by further incubation for 16-48 hours. Media is then harvested and stored frozen in plate format for later endothelin-1 (ET-1) determination by ELISA. Toxicity measurements are made using the ATPlite kit (Perkin-Elmer). ET-1 is quantified using an ELISA kit (R&D Systems). The amount of ET-1 produced in the assay wells are back-calculated using the ELISA standard. The ability of a compound to inhibit ET-1 production is typically analyzed by fitting dose-response curves to a 4-parameter logistic function to obtain an EC50 value. A measure of cytotoxicity (CC50) is likewise reported from the same experiment using the ATPlite data.
Compounds of some embodiments were prepared according to synthetic methods described herein and assay data obtained for EC50 against ET-1. The assay data obtained is presented in Table 2, in which A=less than 50 μM, B=greater than or equal to 50 μM and less than or equal to 200 μM; and C=greater than 200 μM.
Background: ELISA stands for enzyme-linked immunosorbent assay.

By EC50 is commonly meant the midpoint of the concentration-response curve. Read a high EC50 as a less potent agent. With `Cn1cc(-c2ccc(=O)n(-c3ccccc3)n2)cn1` [Compound 361], the EC50 is over 200 µM. `Cc1cc(=O)n(-c2cccc(NC(N)=O)c2)cc1-c1cnn(C)c1` [Compound 628] came in with an EC50 of under 50 µM. `Cc1n[nH]c(C)c1-c1ccc(=O)n(-c2ccc(Cl)cc2)c1` [Compound 380] came in with an EC50 of over 200 µM.

Consider `NS(=O)(=O)c1ccc(-c2ccc(=O)n(-c3ccc(Cl)cc3)c2)cc1` [Compound 327], for which the EC50 is over 200 µM. Take `COc1cccc(-n2cc(-c3c(C)n[nH]c3C)ccc2=O)c1` [Compound 378]: the half-maximal effective concentration (EC50) lay in the range of 50 to 200 µM.

Compound `Cc1cc(=O)n(-c2ccc(OC(F)(F)F)cc2)cc1-c1cccc2[nH]c(=O)oc12` [Compound 555] displayed a 50% effective concentration (EC50) of over 200 µM. The same measure for `Cc1cc(=O)n(-c2ccc(OC(F)(F)F)cc2)cc1-c1ccc2c(ccn2C)c1` [Compound 255]: over 200 µM; for `COCCOc1ccc(-n2cc(-c3ccccc3)c(C)cc2=O)cc1` [Compound 26]: under 50 µM; for `CC(C)Oc1ccc(-n2cc(Br)ccc2=O)cc1` [Compound 267]: over 200 µM. In the case of `CNc1cc(=O)n(-c2ccc(OC(F)(F)F)cc2)cc1-c1cnn(C)c1` [Compound 125] it was over 200 µM; in that of `Cn1cc(-c2cn(-c3ccc(OC(F)(F)F)cc3)c(=O)c3c2ccn3Cc2ccccc2)cn1` [Compound 596], under 50 µM; in that of `Cc1cc(=O)n(-c2ccc(OC(F)(F)F)cc2)cc1-c1nnnn1C` [Compound 257], over 200 µM. Turning to `O=c1ccc(C(F)(F)F)cn1-c1cccc(F)c1` [Compound 274], the half-maximal effective concentration (EC50) is over 200 µM. In turn, `CCOCCn1ccc2c(-c3cn[nH]c3)cn(-c3ccc(OC(F)(F)F)cc3)c(=O)c21` [Compound 691] returned an EC50 of under 50 µM.

Consider `CC(=O)N1CCc2c(-c3cnn(C)c3)cn(-c3ccc(OC(F)(F)F)cc3)c(=O)c21` [Compound 693], for which the EC50 fell in the range of 50 to 200 µM. Consider `CC(=O)Nc1cccc(-n2cc(-c3ccc(F)cc3)c(Oc3ccccc3)cc2=O)c1` [Compound 536], for which the half-maximal effective concentration (EC50) was under 50 µM. The same measure for `O=c1ccc(C(F)(F)F)cn1-c1ccc(NCCN2CCN(CCO)CC2)cc1Cl` [Compound 709]: 50 to 200 µM; for `Cc1cc(=O)n(-c2ccc3c(c2)OCO3)cc1-c1ccc(F)cc1` [Compound 183]: over 200 µM.

`O=c1c2ccc(C(F)(F)F)nc2c(-c2ccc(F)cc2)cn1-c1ccc(OC(F)(F)F)cc1` [Compound 38]: the 50% effective concentration (EC50) was over 200 µM. Compound `CCOc1ccc(CNc2cc(=O)n(-c3ccc(OC(F)(F)F)cc3)cc2-c2cnn(C)c2)c(F)c1` [Compound 528] gave an EC50 of under 50 µM. In the case of `O=c1ccc(-c2cccc(Cl)c2)cn1-c1ccccc1` [Compound 313], the EC50 is 50 to 200 µM.

Consider `CC(=O)Nc1cccc(-n2cc(-c3cn[nH]c3)c(C)cc2=O)c1` [Compound 217], for which the EC50 was over 200 µM. As for `Cn1cc(-c2cn(-c3ccc(OC(F)(F)F)cc3)c(=O)cc2N)cn1` [Compound 124], the EC50 is over 200 µM.

As for `CC(C)Oc1ccc(-n2cc(-c3ccc(S(N)(=O)=O)cc3)ccc2=O)cc1` [Compound 330], the half-maximal effective concentration (EC50) is over 200 µM.

With `CCCOC(=O)Nc1cc(=O)n(-c2ccc(OC(F)(F)F)cc2)cc1-c1ccc(F)cc1` [Compound 105], the EC50 is over 200 µM.

For `CCOc1ccc(-n2cc(-c3cnn(C)c3)c(NCc3cc(F)cc(F)c3)cc2=O)c(C)c1` [Compound 703], the EC50 is under 50 µM. With `Cc1ccccc1-n1cc(-c2cnn(C)c2)ccc1=O` [Compound 439], the EC50 was over 200 µM.

`CCOc1ccc(-n2cc(-c3cnn(C)c3)c(NCc3ccccn3)cc2=O)c(C)c1` [Compound 699] registered an EC50 of 50 to 200 µM. `O=c1ccc(-c2ccc(F)cc2)cn1Cc1ccccc1` [Compound 79] registered an EC50 of under 50 µM. As for `Cc1cc(=O)n(-c2ccc3scnc3c2)cc1-c1cnn(C)c1` [Compound 225], the EC50 is over 200 µM. Turning to `O=c1ccc(Br)cn1-c1ccc(OC(F)(F)F)cc1` [Compound 270], the EC50 is over 200 µM. The same measure for `Cn1cc(-c2cn(-c3ccc(OC(F)(F)F)cc3)c(=O)c3ncn(Cc4ccccc4)c23)cn1` [Compound 55]: over 200 µM; for `CCCC(=O)Nc1cc(=O)n(-c2ccc(OC(F)(F)F)cc2)cc1-c1ccc(F)cc1` [Compound 110]: over 200 µM; for `CC(=O)Nc1cccc(-n2cc(-c3ccccc3)c(C)cc2=O)c1` [Compound 167]: over 200 µM.

`COc1ccc(-n2cc(-c3ccc(S(N)(=O)=O)cc3)ccc2=O)cc1` [Compound 328] showed a half-maximal effective concentration (EC50) of over 200 µM. For the compound `N#Cc1ccc(-n2cc(-c3cn[nH]c3)c3nccnc3c2=O)cc1` [Compound 573], the 50% effective concentration (EC50) is over 200 µM. In the case of `Cn1cc(-c2cn(-c3ccc(OC(F)(F)F)cc3)c(=O)cc2Nc2ccccc2)cn1` [Compound 130] it was over 200 µM; in that of `Cn1cc(-c2cn(-c3ccc(OC(F)(F)F)cc3)c(=O)cc2NCc2ccc(C#N)cc2)cn1` [Compound 526], over 200 µM.

As to `O=c1c2cccnc2c(-c2cn[nH]c2)cn1-c1ccc(OC(F)(F)F)cc1` [Compound 579], the concentration giving a half-maximal response (EC50) was over 200 µM.

With `Cn1ccc2c(-c3cn[nH]c3)cn(-c3ccc(Cl)cc3)c(=O)c21` [Compound 598], the 50% effective concentration (EC50) is under 50 µM. The same measure for `O=c1c2nsnc2c(-c2ccc(F)cc2)cn1-c1ccc(OC(F)(F)F)cc1` [Compound 40]: over 200 µM.

`Cc1cc(=O)n(-c2ccc(OC(F)(F)F)cc2C)cc1-c1cnn(C)c1` [Compound 442] showed an EC50 of over 200 µM. In the case of `O=c1ccc(-c2cncnc2)cn1-c1ccc(F)cc1` [Compound 344] it was over 200 µM. Turning to `N#Cc1ccc(-n2cc(-c3cn[nH]c3)c3ncccc3c2=O)cc1` [Compound 581], the EC50 is over 200 µM. In the case of `CCOc1ccc(CNc2cc(=O)n(-c3ccc(OCC)cc3C)cc2-c2cnn(C)c2)c(C)c1` [Compound 706] it was under 50 µM. In the case of `Cc1cc(=O)n(-c2ccc(OC(F)(F)F)cc2)cc1-c1ccc(F)cc1` [Compound 213] it was over 200 µM; in that of `Cc1cc(=O)n(-c2ccc(OC(F)(F)F)cc2)cc1-c1ccc2[nH]c(=O)oc2c1` [Compound 429], over 200 µM. The same measure for `Cn1cc(-c2cn(-c3ccc(OC(F)(F)F)cc3)c(=O)cc2OCCN2CCS(=O)(=O)CC2)cn1` [Compound 148]: over 200 µM; for `Cn1cc(-c2cn(-c3ccc(OC(F)(F)F)cc3)c(=O)cc2O)cn1` [Compound 121]: over 200 µM; for `Cc1cc(=O)n(-c2ccccc2F)cc1-c1ccc(F)cc1` [Compound 178]: 50 to 200 µM.

In turn, `Cn1cc(-c2cn(-c3ccc(OC(F)(F)F)cc3)c(=O)cc2OC2CCS(=O)(=O)CC2)cn1` [Compound 149] registered an EC50 of 50 to 200 µM. In the case of `Cc1n[nH]c(C)c1-c1ccc(=O)n(-c2ccncc2)c1` [Compound 390] it was over 200 µM; in that of `CCC(=O)Nc1cc(=O)n(-c2ccc(OC(F)(F)F)cc2)cc1-c1ccc(F)cc1` [Compound 106], over 200 µM; in that of `Cc1nc2c(=O)n(-c3ccc(OC(F)(F)F)cc3)cc(-c3cn[nH]c3)c2n1C` [Compound 675], under 50 µM. Compound `Cc1cc(=O)n(-c2ccccc2)cc1-c1ccccc1` [Compound 165] showed an EC50 of 50 to 200 µM. The compound `Cc1cc(=O)n(-c2ccc(F)c(NC(N)=O)c2)cc1-c1ccc(F)cc1` [Compound 559] showed an EC50 of under 50 µM.

With `Cc1cc(=O)n(-c2ccccc2F)cc1-c1ccccc1` [Compound 171], the 50% effective concentration (EC50) lay in the range of 50 to 200 µM.

`O=c1c2ncn(Cc3ccccc3)c2c(-c2ccc(F)cc2)cn1-c1ccc(OC(F)(F)F)cc1` [Compound 54] had an EC50 of over 200 µM.

Compound `O=c1c2nccnc2c(-c2cnn(CCO)c2)cn1-c1ccc(OC(F)(F)F)cc1` [Compound 577] registered a half-maximal effective concentration (EC50) of 50 to 200 µM. The same measure for `COc1cc(-n2cc(-c3cn[nH]c3)c(C)cc2=O)cc(OC)c1OC` [Compound 220]: over 200 µM; for `CCOc1ccc(-n2cc(-c3cnn(C)c3)c(OC3CCOCC3)cc2=O)c(C)c1` [Compound 698]: 50 to 200 µM; for `Cc1ccc(=S)n(-c2ccc(F)cc2)c1` [Compound 336]: over 200 µM. Regarding `Cn1cc(-c2cn(-c3cccc(NC(N)=O)c3)c(=O)cc2Oc2ccccc2)cn1` [Compound 537], the 50% effective concentration (EC50) is under 50 µM.

In the case of `CCn1cnc2c(-c3cn[nH]c3)cn(-c3ccc(OC(F)(F)F)cc3)c(=O)c21` [Compound 669], the EC50 is under 50 µM. In the case of `Nc1cc(=O)n(-c2ccc(OC(F)(F)F)cc2)cc1-c1ccc(F)cc1` [Compound 88], the EC50 is 50 to 200 µM.

`CCOc1ccc(-n2cc(-c3cnn(C)c3)c(NCc3ccc(F)cc3F)cc2=O)c(C)c1` [Compound 702] returned a 50% effective concentration (EC50) of under 50 µM. In the case of `COc1ccc(-c2ccc(=O)n(-c3cncnc3)c2)cc1` [Compound 311] it was over 200 µM. `O=c1c2c(c(-c3cccc(F)c3)cn1-c1ccc(OC(F)(F)F)cc1)CCCC2` [Compound 34] had an EC50 of under 50 µM. The same measure for `O=c1ccc(-c2cccc(Cl)c2)cn1-c1cccc(C(F)(F)F)c1` [Compound 318]: under 50 µM. Compound `Cn1cc(-c2cn(-c3ccc(O)cc3)c(=O)cc2Oc2ccccc2)cn1` [Compound 545] gave a concentration for a half-maximal effect (EC50) of over 200 µM. As to `CC(=O)c1ccc(=O)n(-c2ccc(Cl)cc2)c1` [Compound 12], the concentration giving a half-maximal response (EC50) is over 200 µM.
